Laboratory results reported in patent US8940793B2, “4-[(haloalkyl)(dimethyl)ammonio]butanoates and use thereof in the treatment of cardiovascular disease” (JSC Grindeks, priority 2011, dated 2015).
Marks after values point to notes of the source that are not given here.

Key:
isolated rat heart = experiment: Isolated rat heart infarction study after oral treatment (cardioprotective activity); assay type: in vivo, Wistar rats; details: for Infarct size, % of control: 20 mg/kg p.o. daily, after 2 weeks of treatment (method: 8 weeks), hearts excised 24 h after last dose, 60 min occlusion, 150 min reperfusion, mean ± s.e.m. of 9-10 animals; for Therapeutical (cardioprotective) effect, in words / Decrease of infarct size: 20 mg/kg p.o., isolated rat heart infarction model; for Decrease of infarct size: versus control
Procedure: Fifty male, 10 weeks old Wistar rats weighing 200-250 g were housed under standard conditions (21-23° C., 12 h light-dark cycle) with unlimited access to food (R3 diet, Lactamin AB, Sweden) and water.
(§1) Rats were adapted to local conditions for two weeks before the start of treatment. Meldonium dihydrate at a dose of 20 mg/kg, gamma-butyrobetaine at a dose of 20 mg/kg and 4-[(chloromethyl)(dimethyl) ammonio]butanoate at dose of 20 mg/kg were administered p.o. daily for 8 weeks. Control rats received water.
The isolated rat heart experiment was performed essentially as described earlier (Liepinsh et al., J. Cardiovasc. Pharmacol. 2006; 48(6):314-9). Twenty-four hours after the last drug administration hearts were excised and retrogradely perfused via the aorta at a constant pressure with oxygenated Krebs-Henseleit buffer at 37° C. The heart rate, left ventricle end-diastolic pressure and left ventricle developed pressure were continuously recorded. Coronary flow was measured using an ultrasound flow detector (HSE) and the PowerLab 8/30 system from ADInstruments. The hearts were perfused for 20 min to stabilize the hemodynamic functions and then occlusion was performed for 60 min by constricting threads through a plastic tube. Successful occlusion was confirmed by a coronary flow decrease of about 40 percent. Reperfusion was achieved by releasing the threads. At the end of the 150-min reperfusion period, the risk zone was delineated with 0.1% methylene blue. The hearts were then sectioned transversely from the apex to the base in five slices 2 mm in thickness and incubated in 1% triphenyltetrazolium chloride in phosphate buffer (pH 7.4, 37° C.) for 10 min to stain viable tissue red and necrotic tissue white. Computerized planemetric analysis of Sony A900 photographs was performed using Image-Pro Plus 6.3 software to determine the area at risk and area of necrosis expressed as a % of the left ventricle. The obtained values were then used to calculate the infarct size (IS) as a % of risk area according to the formula: Infarct Size=Area of Necrosis/Area at Risk×100%. Effects in Isolated Rat Heart Infarction Model
The anti-infarction effect of examined substances was investigated in an isolated rat heart infarction model. During occlusion of left coronary artery, the coronary flow in all experimental groups was decreased for 40% (from 11 ml/min to 7 ml/min). Moreover, the drop of developed left ventricular pressure for 50% was observed. […] In reperfusion stage, coronary flow, developed left ventricular pressure, ±dp/dt values were recovered till about 80% of control level. There were no significant differences between control and treatment groups.
Effects of Meldonium dihydrate (20 mg/kg), gamma-butyrobetaine (20 mg/kg) and 4-[(chloromethyl)(dimethyl) ammonio]butanoate (20 mg/kg) after 2 weeks of treatment on infarct size in the isolated rat heart infarction experiment are presented in Table 1.
as §1, with “3-carboxy-N-(2-chloroethyl)-N,N-dimethylpropan-1-aminium chloride” for “4-[(chloromethyl)(dimethyl) ammonio]butanoate”
Effects of Meldonium dihydrate (20 mg/kg), gamma-butyrobetaine (20 mg/kg) and 3-carboxy-N-(2-chloroethyl)-N,N-dimethylpropan-1-aminium chloride (20 mg/kg) after 2 weeks of treatment on infarct size in the isolated rat heart infarction experiment are presented in Table 2.
The same experimental conditions as above were used for testing 3-carboxy-N-(2-fluoroethyl)-N,N-dimethylpropan-1-aminium chloride.
Effects of Meldonium dihydrate (20 mg/kg), gamma-butyrobetaine (20 mg/kg) and 3-carboxy-N-(2-fluoroethyl)-N,N-dimethylpropan-1-aminium chloride (20 mg/kg) after 2 weeks of treatment on infarct size in the isolated rat heart infarction experiment are presented in Table 3.

[1] = s.c.; cited from earlier work

SMILES	Infarct size, % of control (isolated rat heart)	Therapeutical (cardioprotective) effect, in words (isolated rat heart)	Decrease of infarct size (isolated rat heart)	melting point	LD50 [1]
C[N+](C)(CCCl)CCCC(=O)O.[Cl-] [3-carboxy-N-(2-chloroethyl)-N,N-dimethylpropan-1-aminium chloride]	59.9 ± 7.6*^,#,$ % of control	best therapeutical effect	41.1%	130 °C	
C[N+](C)(CCF)CCCC(=O)O.[Cl-] [3-carboxy-N-(2-fluoroethyl)-N,N-dimethylpropan-1-aminium chloride]	65.5 ± 9.1*^,#,$ % of control	best therapeutical effect	34.5%		
C[N+](C)(CCl)CCCC(=O)[O-] [4-[(chloromethyl)(dimethyl)ammonio]butanoate]	65.2 ± 6.8*^,#,$ % of control	best therapeutical effect	34.8%	100.5 to 101 °C	
C[N+](C)(C)CCCC(=O)[O-] [Gamma-butyrobetaine, γ-Butyrobetaine, reference compound]	87.6 ± 11.4 % of control		~12.4%		> 7000 mg/kg
C[N+](C)(C)NCCC(=O)[O-] [Meldonium dihydrate, 3-(2,2,2-Trimethylhydrazinium) propionate dihydrate, reference compound]	117.9 ± 7.9 % of control				
